What is called IC50 is the concentration that inhibits the measured activity by half.

Results on three compounds are retold here after paper PMC8868518, “Exploring Titanium(IV) Complexes as Potential Antimicrobial Compounds” (Antibiotics, 2022).

The conditions of data set [1]: cited from earlier work.
The subject of data set [2] is hemolytic and nonhemolytic S. aureus cultures. Further details: method as in doi:10.2298/abs141203061g. Conditions: cited from earlier work.
For data set [3], the system named is total intestinal bacterial count. More on the design: method as in PMID 11762532. Conditions: white mice, supplied in bread; cited from earlier work.
For data set [4], the system named is C. neoformans (ATCC 208821). In words: CO-ADD antifungal assay, growth inhibition (resazurin, OD600-570). The format is cell-based, Cryptococcus neoformans. The conditions noted are these: up to 32 μg/mL. Background: Resazurin is reduced to fluorescent resorufin, in cell work by metabolically active cells.
For data set [5], the system named is S. aureus MRSA (ATCC 43300). In words: CO-ADD antibacterial assay, growth inhibition (OD600). The format is cell-based, Staphylococcus aureus.
Data set [6] concerns K. pneumoniae (ATCC 700603). The data set is described as above. The class given is cell-based, Klebsiella pneumoniae. Conditions: up to 32 μg/mL.
Data set [7] deals with A. baumannii (ATCC 19606). The description is as above. The class given is cell-based, Acinetobacter baumannii. The conditions noted are these: up to 32 μg/mL.
The test system of another data set is MRC-5 cells. As to the kind of experiment: MRC-5 cell viability, dose-response treatment, MTT assay. Conditions: pH 7.4. The format is cell-based, human. As for the experimental part:
A thawed stock of MRC-5 cells was washed with 1X PBS and resuspended in phenol red DMEM media (supplemented with 10% FBS and 1% of penicillin-streptomycin) and then seeded in a 100 mm × 20 mm (complete, O.D. x H) petri dish and grown in a 5% (v/v) CO2 humidified atmosphere at 37 °C. At least three passages were performed to ensure the integrity of the cells. After this point, cells were collected, thoroughly washed with 1X PBS, and then resuspended in phenol red-free DMEM (supplemented with 10% FBS, 1% Streptomycin/Penicillin, and 2.4 mM L-glutamine) at a 2.0 × 10^5 cells/mL concentration. Approximately 100 µL of the cell solution was seeded into wells of several 96-well plates to begin the MTT assay, which was performed in the 5% (v/v) CO2 humidified atmosphere at 37 °C. At least one lane of wells in each plate was supplied media without cells as a control. […] Most of the compounds were dissolved in 1X PBS buffer at pH 7.4. […] Titanocene dichloride was prepared as a fresh stock solution in DMSO and then diluted in 0.1 M NaCl (aq) instead of 1X PBS (to minimize hydrolysis induced precipitation) to the desired concentration while maintaining a constant 1% (v/v) DMSO background (0.5% DMSO after mixing with the well media). A control of cells treated with media containing 1% (v/v) DMSO was included in the study. The titanocene solutions were used within an hour of preparation in the final cell solution. […] At 3 h before a total of 72 h of incubation with the compounds, the cells were treated with 25 µL of 9 mg/mL MTT prepared in 1X PBS and sterile-filtered. Upon completion of the three hours, 50 µL of 10% (w/v) SDS (prepared in 0.1 M Tris buffer at pH 11) was added to solubilize the purple formazan product crystals and left overnight in the incubator. Control wells in the plates consisted of: (1) Untreated cells + MTT as the measure of 100% viable cell growth in the media and (2) Media with no cells + MTT as the measure of zero cells in the media. Two sets of compounds could be tested per plate. The plates were read at the wavelength of 570 nm (absorbance of the formazan product at pH 10.0) and 800 nm (background control) using a Tecan plate reader. The absorbance of all wells was compared to the absorbance of the untreated cells with the MTT set as the 100% viable cell standard and the absorbance of the zero cell control set as the 0% viable cell standard. […] Nonlinear regression in Origin 8.5 was utilized to fit the growth curves using the pharmacology dose–response equation to determine the half-maximal inhibitory concentration (IC50) and the corresponding standard deviation. All samples were tested six times.
A general note: Formazan colour is commonly taken as a measure of viable cells.

A short description of data set [8]: Aqueous solution stability, ligand exchange lability and solubility. Conditions: water / aqueous buffer.
Data set [9] deals with P. aeruginosa (ATCC 27853). In words: CO-ADD antibacterial assay, growth inhibition (OD600). The format is cell-based, Pseudomonas aeruginosa. The conditions noted are these: up to 32 μg/mL.
The subject of a further data set is C. albicans (ATCC 90028). As to the kind of experiment: CO-ADD antifungal assay, growth inhibition (OD630). The format is cell-based, Candida albicans. Conditions: up to 32 μg/mL.
A further data set deals with E. coli (ATCC 25922). As to the kind of experiment: CO-ADD antibacterial assay, growth inhibition (OD600). The format is cell-based, Escherichia coli. Conditions: up to 32 μg/mL.
Setting [10] is: predicted or measured MIC, ≥75% growth inhibition, 36 h.
The mark [11] stands for this setting: predicted or measured MIC, ≥75% growth inhibition.

Each structure is given as a SMILES string.

Take `O=C([O-])CC1(CC(=O)[O-])[O][Ti-2]23([O]C1=O)([O]C(=O)C(CC(=O)[O-])(CC(=O)[O-])[O]2)[O]C(=O)C(CC(=O)[O-])(CC(=O)[O-])[O]3` [Ti(citrate)3^8−]: in [1], the “ligand exchange lability (in words)” value was “ligand exchange labile”. Besides, in data set [2] (all concentrations tested (0.5 to 50 mM)), the “biofilm formation (in words)” value is reported as “significantly activated biofilm formation”. In addition, the “concentration with significant inhibition of growth rate” value in [2] (only the early phase of the bacterial growth cycle) was 50 mM.

Regarding `O=C(O)C(=O)O.[O]=[Ti]` [titanyl oxalate], in data set [3], the “decrease in the total intestinal bacterial count” value was 50%.

For the compound `O=C1[O][Ti-2]23([O]C(=O)c4ccccc4[O]2)([O]C(=O)c2ccccc2[O]3)[O]c2ccccc21.[Na+].[Na+]` [Compound 12, Na2[Ti(Salicylate)3]], the “MIC C. neoformans” value in data set [4] (setting [10]) was over 32 µg/mL. The “Dmax C. neoformans, maximum % inhibition” value in data set [4] is listed as −5.2%. Besides, the “MIC S. aureus (MRSA)” value in data set [5] (predicted or measured MIC, lowest concentration with ≥75% growth inhibition, 0.25-32 μg/mL, 18 h) is over 32 µg/mL. In addition, in [5] (up to 32 μg/mL), the “Dmax S. aureus (MRSA), maximum % inhibition” value amounted to 3.66%. Further, the “MIC K. pneumoniae” value in [6] (setting [11]) is over 32 µg/mL. Moreover, the “Dmax K. pneumoniae, maximum % inhibition” value in [6] was 12.46%. The “MIC A. baumannii” value in data set [7] (setting [11]) was over 32 µg/mL. The “Dmax A. baumannii, maximum % inhibition” value in data set [7] was 9.4%. Besides, in the data set with MRC-5 cells, the “IC50 ± SD (µg/mL), relative IC50” value is recorded as 5.14 ± 0.92 µg/mL. In the data set with MRC-5 cells (read-out: IC50 ± SD (µM), relative IC50), the IC50 was 8.6 ± 1.54 µM. In addition, the “solubility (in words)” value in [8] is given as “limited solubility in water”. Further, the “MIC P. aeruginosa” value in data set [9] (setting [11]) was over 32 µg/mL. Moreover, the “Dmax P. aeruginosa, maximum % inhibition” value in data set [9] is reported as 9.57%. In addition, in the data set with C. albicans (ATCC 90028) (setting [10]), the “MIC C. albicans” value was over 32 µg/mL. For the same compound, in the data set with C. albicans (ATCC 90028), the “Dmax C. albicans, maximum % inhibition” value is 49.3%. Besides, the “MIC E. coli” value in the data set with E. coli (ATCC 25922) (setting [11]) was over 32 µg/mL. Also, the “Dmax E. coli, maximum % inhibition” value with E. coli (ATCC 25922) amounted to 2.6%.
